{"source": "patent US12484574B2", "about": "“Agent for promoting undifferentiation and cryoprotective agent using aprotic zwitterion” (JAPAN SCIENCE AND TECHNOLOGY AGENCY, priority 2019, dated 2025)", "key": {"[1]": {"test_system": "Mouse fibroblasts C57BL/6-GFP", "experiment": "Cell freezing, slow freezing method, viable cell count after thawing (Example 2)", "format": "cell-based", "settings": "5% by weight in H2O; frozen to −80° C. at −1° C./min; FIG. 4", "experimental": "(§1) CultureSure® cryopreservation solution (manufactured by FUJIFILM Wako Pure Chemical Corp.) (hereinafter, referred to as “FM”) • H2O • 5% by weight of DMSO/H2O • 5% by weight of OE2imC3C/H2O\n(§2) The cells to be frozen (two types) were centrifugally recovered by trypsin treatment and diluted with Dulbecco's modified Eagle medium (DMEM), and each cell concentration was measured. The types and cell concentrations of the cells are as follows. • Human skin fibroblasts 5.0×10^5 cells/100 μl • Mouse fibroblasts C57BL/6-GFP 5.0×10^5 cells/100 μl\n(§3) Subsequently, the cells of each type were dispensed at 1 ml/tube to 1.5 ml tubes, centrifuged, suspended in 100 μl each of the cryopreservation solutions described above, and frozen at a cooling temperature of −80° C. at a cooling rate of −1° C./min using a cell freezing container Mr. Frosty®.\n(§4) 1 ml of a medium was added to the cryopreservation vial for thawing, and a supernatant was removed by centrifugation. Subsequently, the cells obtained by centrifugation were resuspended in a medium, followed by the measurement of a viable cell count. Then, culture was started in a 6-well plate."}, "Wild-type zebrafish AB*": {"test_system": "Wild-type zebrafish AB*", "experiment": "Influence on development of zebrafish", "format": "in vivo", "settings": "fertilized eggs cultured 1.5 to 24 hours", "experimental": "All experiments were conducted based on a protocol approved by the animal experiment committee of Kanazawa University. Wild-type zebrafish AB* was raised at 28.5° C. with 14-hour light/10-hour dark cycles in a circulating water system. The medium used was E3 medium (5 mM NaCl, 0.17 mM KCl, 0.33 mM CaCl2, 0.33 mM MgSO4). The medium was supplemented with 1%, 2%, 5% or 10% DMSO or HLS (OE2imC3C). For each test group, eggs were fertilized and then cultured for 1.5 to 24 hours. The embryos thus cultured were washed with E3 medium twice and treated with 1-phenyl-2-thiourea (FUJIFILM Wako Pure Chemical Corp.) in order to prevent pigmentation. The embryos were stained with 0.6 mg/mL o-dianisidine (Tokyo Chemical Industry Co., Ltd.) for 15 minutes and fixed in 4% paraformaldehyde (FUJIFILM Wako Pure Chemical Corp.). The embryos were washed with phosphate-buffered saline containing 0.1% Tween (Sigma-Aldrich Co. LLC) twice. The survival rate was similar between DMSO and HLS (OE2imC3C) up to the 2% addition groups, whereas the survival rate differed largely therebetween in the 5% addition groups."}, "Human skin fibroblasts [2]": {"test_system": "Human skin fibroblasts", "experiment": "Cell freezing, slow freezing method, viable cell count after thawing (Examples 2, 3)", "format": "cell-based", "settings": "5% by weight in H2O; frozen to −80° C. at −1° C./min; FIG. 3, FIG. 6", "experimental": "as §1, §2, §3\n1 ml of a medium was added to the cryopreservation vial for thawing, and a supernatant was removed by centrifugation. Subsequently, the cells obtained by centrifugation were resuspended in a medium, followed by the measurement of a viable cell count. Then, culture was started in a 6-well plate. […]\nThe cells to be frozen were centrifugally recovered by trypsin treatment and diluted with Dulbecco's modified Eagle medium (DMEM), and the cell concentration was measured. […]"}, "[3]": {"test_system": "Mouse fibroblasts C57BL/6-GFP", "experiment": "Cell freezing, rapid freezing method, viable cell count (Example 4)", "format": "cell-based", "experimental": "(§5) Human ES cell and human iPS cell cryopreservation solution DAP213 (manufactured by ReproCELL Inc.) • 75% by weight of OE2imC3C/H2O • 50% by weight of OE2imC3C/H2O • 25% by weight of OE2imC3C/H2O\nas §2, with “fibroblasts 8.2×10^5” for “fibroblasts 5.0×10^5”, “μl (N=3)” for “μl”, “C57BL/6-GFP 1.2×10^6” for “C57BL/6-GFP 5.0×10^5”\n(§6) Subsequently, the cells of each type were dispensed at 1 ml/tube to 1.5 ml tubes, centrifuged, suspended in 100 μl each of the cryopreservation solutions described above, and immediately thereafter rapidly frozen in liquid nitrogen within 10 to 15 seconds. Then, the cells were preserved for 3 days in a liquid nitrogen tank.\n(§7) The cryopreservation vial was rapidly thawed with 1 ml of a medium, and a supernatant was removed by centrifugation. Subsequently, the cells obtained by centrifugation were resuspended in a medium, followed by the measurement of a viable cell count. Then, culture was started in a 6-well plate.\n(§8) 24 hours after the start of culture, the viable cell count was measured."}, "Human skin fibroblasts [4]": {"test_system": "Human skin fibroblasts", "experiment": "Cell freezing, rapid freezing method, viable cell count (Example 4)", "format": "cell-based", "experimental": "as §5\nas §2, with “fibroblasts 8.2×10^5” for “fibroblasts 5.0×10^5”, “μl (N=3)” for “μl”, “C57BL/6-GFP 1.2×10^6” for “C57BL/6-GFP 5.0×10^5”\nas §6, §7, §8"}, "[5]": {"test_system": "Human skin fibroblasts / Mouse fibroblasts C57BL/6-GFP", "experiment": "Cell state 24 hours after start of culture, slow freezing method (microscope)", "format": "cell-based", "settings": "5% by weight in H2O, thawed, cultured 24 hours, cell type of FIG. 5 not stated", "experimental": "as §2, §3, §4\n24 hours after the start of culture, the sample was fixed in 4% paraformaldehyde (PFA) and observed under a microscope."}}, "note": "“Also recorded” adds a separate entry of the source.", "data": [{"smiles": "COCCOCCn1cc[n+](CCCC(=O)[O-])c1", "note": "[OE2imC3C]", "values": [{"measurement": "viable cell count after thawing", "setting": "[1]", "value": "larger viable cell count than that in the case of using conventional DMSO"}, {"measurement": "Survival rate", "setting": "Wild-type zebrafish AB*; Concentration 1 % (v/v for DMSO, w/v for HLS) in E3 medium", "value": "27/27"}, {"measurement": "Survival rate", "setting": "Wild-type zebrafish AB*; Concentration 2 % (v/v for DMSO, w/v for HLS) in E3 medium", "value": "27/27"}, {"measurement": "Survival rate", "setting": "Wild-type zebrafish AB*; Concentration 5 % (v/v for DMSO, w/v for HLS) in E3 medium", "value": "27/27"}, {"measurement": "Survival rate", "setting": "Wild-type zebrafish AB*; Concentration 10 % (v/v for DMSO, w/v for HLS) in E3 medium", "value": "0/27"}, {"measurement": "viable cell count after thawing", "setting": "Human skin fibroblasts [2]", "value": "larger viable cell count than that in the case of using conventional DMSO; also recorded: superior to the commercially available cryopreservation solution (FM)"}, {"measurement": "viable cell count after thawing", "setting": "[3]; 75, 50, 25% by weight in H2O, rapidly frozen in liquid nitrogen, preserved 3 days, FIG. 8", "value": "comparable to that of the commercially available cryopreservation solution DAP213; also recorded: a lower concentration (25% by weight) offered a higher survival rate of the cells"}, {"measurement": "viable cell count 24 hours after the start of culture", "setting": "[3]; rapid freezing method, FIG. 10", "value": "reached a high value, albeit being inferior to the commercially available cryopreservation solution DAP213"}, {"measurement": "viable cell count after thawing", "setting": "Human skin fibroblasts [4]; 75, 50, 25% by weight in H2O, rapidly frozen in liquid nitrogen, preserved 3 days, FIG. 7", "value": "comparable to that of the commercially available cryopreservation solution DAP213; also recorded: a lower concentration (25% by weight) offered a higher survival rate of the cells"}, {"measurement": "viable cell count 24 hours after the start of culture", "setting": "Human skin fibroblasts [4]; rapid freezing method, FIG. 9", "value": "reached a high value, albeit being inferior to the commercially available cryopreservation solution DAP213"}, {"measurement": "cell state 24 hours after the start of culture", "setting": "[5]", "value": "confirmed to adhere to the dish bottom"}]}]}
